From paper PMC11470957, “Principles of paralog-specific targeted protein degradation engaging the C-degron E3 KLHDC2” (Nature Communications, 2024)
Values joined by “and” are separate entries in the source; they are usually repeats but may differ in a detail not shown here. Equal values may be shown once. Read-outs that look alike come from different tables or passages of the source. Each block holds one molecule with its values, some of them ahead of it.

Experiments:
[1] = system: SKBR3, AU565, RD, SKES1, A673 cells; assay: Cell Titer-Glo Luminescent Cell Viability assay; conditions: read-out: IC50, cell viability; five cell lines (SKBR3, AU565, RD, SKES1, A673), after 24 hours
KLHDC2^SBD [2] = biological target: T1, KLHDC2^SBD (Homo sapiens, UniProt Q9Y2U9); assay: TR-FRET assay, competition with di-Gly degron peptide binding to KLHDC2^SBD; set-up: KLHDC2^SBD (15-361) and its Avi-tagged counterpart were expressed in E. coli Rosetta2 cells; 6XHis-MBP (N, cleaved yes); made in house; host or cells: E. coli Rosetta2
T1 sequence (Q9Y2U9 15-361): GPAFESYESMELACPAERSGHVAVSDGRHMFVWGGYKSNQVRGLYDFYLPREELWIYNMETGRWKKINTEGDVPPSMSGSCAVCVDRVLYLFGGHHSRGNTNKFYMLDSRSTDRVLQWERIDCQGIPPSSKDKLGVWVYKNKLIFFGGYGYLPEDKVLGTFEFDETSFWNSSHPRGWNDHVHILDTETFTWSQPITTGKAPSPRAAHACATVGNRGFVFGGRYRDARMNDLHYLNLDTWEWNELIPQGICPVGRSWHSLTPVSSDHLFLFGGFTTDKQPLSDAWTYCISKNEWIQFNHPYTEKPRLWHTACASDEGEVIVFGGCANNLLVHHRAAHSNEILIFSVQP
Experimental: TR-FRET assays were carried out in black 384-well microtiter plates at a final volume of 20 μL per well. An assay cocktail was prepared as a mixture of 50 nM Biotin-KLHDC2 SBD, 20 nM AlexaFluor488-RIC8B peptide, 2.5 nM Tb-Streptavidin (ThermoFisher) in assay buffer (25 mM HEPES, 100 mM NaCl, 0.1% Triton X-100, 0.5 mM DTT, pH 7.5). The assay cocktail was incubated for thirty-minutes at room temperature and 20 μl distributed to assay plates. Molecules were distributed to the plates at the indicated concentration and the assay mixture was incubated for 1 h at room temperature prior to measuring the TR-FRET signal with a PHERAstar FS plate reader (BMG Labtech) equipped with modules for excitation at 337 nm and emissions at 490 and 520 nm. The integration start was set to 100 µs and the integration time to 200 µs. The number of flashes was fixed at 100. The ratio of 520/490 was used as TR-FRET signal in calculations. Assay endpoints were normalized to 100% (buffer only) and used for curve fitting in Prism.

KLHDC2^SBD [3] = biological target: T1, KLHDC2^SBD; assay: Surface plasmon resonance binding to KLHDC2; set-up: KLHDC2^SBD (15-361) and its Avi-tagged counterpart were expressed in E. coli Rosetta2 cells; 6XHis-MBP (N, cleaved yes); made in house; host or cells: E. coli Rosetta2
Experimental: Surface plasmon resonance (SPR) was utilized to determine kinetic parameters and binding affinity of KLHDC2 substrates using a PioneerFE (Sartorius). Experiments were carried out in 20 mM Tris, 200 mM NaCl, 1 mM TCEP, 0.01% Brij35, and 1% DMSO at pH 7.4 as a running buffer with a 100 µL/min flow rate at 20 °C.
The 10xHis-KLHDC2 was immobilized onto a Ni-NTA-coated biosensor chip (HisCap). The chip surface was conditioned using 10 mM HCl, 50 mM NaOH, and 0.1% SDS (50 µL at 100 µL/min) twice, followed by a 100 mM Tris buffer wash (100 µL at 100 µL/min). The surface was then activated using an injection of 0.5 M EDTA (125 µL at 25 µL/min) followed by an injection of 5 mM NiCl2 (125 µL at 25 µL/min). […] Channel 2 was treated identically to channel 3 except for protein loading to be used as a reference channel. […] 100% of the loop was injected with a 300 s dissociation time. All samples were run in triplicate. Data was analyzed using Qdat software and fit to a simple 1-site model.
The SPR experiments were performed to determine the binding affinities (KD) of KLHDC2-SJ46411 and KLHDC2-SJ46418 complexes. All the experiments were performed using a Biacore 1S+ instrument. […] The running buffer consisted of 20 mM Tris pH 7.5, 200 mM NaCl, 1 mM TCEP, 0.01% Brij35, and 4% DMSO. […] In brief, before the immobilization, the sensor chip surface was conditioned by injecting a mixture of (3:1 v/v) 8 M guanidine hydrochloride and 1 M NaOH at a flow rate of 5 μL/min for 2 min for two times. Then, running buffer was injected at a 30 μl/min flow rate for 1 min 3 times. Next, the Biotin CAPture reagent was injected at a flow rate of 2 μl/min for 5 min. Then, biotinylated KLHDC2 was only injected onto the active channel (channel 2).
Sample preparation was carried out precisely the same as SJ46411. All experiments were performed using a multi-cycle analysis method with a 30 μl/min flow rate, 120 S association, and 240 s dissociation time. All data were reference subtracted and corrected for DMSO mismatch. The sensorgrams were analyzed using Biacore insight evaluation software, and KD was determined using the 1:1 steady-state affinity fitting. Finally, all the analyzed data was replotted using GraphPad Prizm 10 software.

KLHDC2^SBD [4] = biological target: T1, KLHDC2^SBD; assay: Thermal shift assay (Sypro Orange) probing stabilization of KLHDC2^SBD; type: binding; set-up: KLHDC2^SBD (15-361) and its Avi-tagged counterpart were expressed in E. coli Rosetta2 cells; 6XHis-MBP (N, cleaved yes); made in house; host or cells: E. coli Rosetta2
Experimental: In an attempt to identify non-peptide ligands that target KLHDC2’s substrate binding domain (SBD), we developed a thermal shift assay probing for stabilization of KLHDC2^SBD upon ligand addition. […] We utilized the thermal shift assay to screen ~ 9,000 molecules from a diverse collection of lead-like molecules (Figs. 1b, S1a, Supplementary Table 1).
Experimental compounds (200 nl each) were dispensed into a 384-well PCR plate using the Labcyte ECHO 655 T. The assay solution, comprising 0.5 μM KLHDC2, 25 mM HEPES, 200 mM NaCl, and 5% Sypro Orange at pH 7.5, was added to achieve a final volume of 20 μl. Negative control wells contained only DMSO, while positive control wells contained a di-Gly substrate peptide derived from SELK. Fluorescence measurements of Sypro Orange in each sample were taken using a Quantstudio 5 or Quantstudio 6, with temperatures ranging from 23 to 75 °C at a rate of 0.05 °C/s. Data analysis involved calculating thermal stability using the Boltzmann and first derivative minima equations in Thermo Scientific Protein Thermal Shift software v1.4. The resulting data were uploaded to CDD Vault for further analysis.
The 8892-compound lead-like one library was screened for its ability to stabilize KLHDC2 using a sypro orange-based thermal stability single-point assay.
Supplementary Ta b l e 1. Small molecule screening data
Category Parameter Description
Assay Ty p e o f assay Thermal Stability Screen
Primary measurement RFU of Sypro Orange
Key reagents Sypro Orange
Assay protocol Experimental compounds (200nl each) were dispensed into […]
a 384-well PCR plate using the Labcyte ECHO 655T. The […]
assay solution, comprising 0.5µM KLHDC2, 25mM HEPES,
200mM NaCl, and 5% Sypro Orange at pH 7.5, was added […]
to achieve a final volume of 20μl. Negative control wells […]
contained only DMSO, while positive control wells […]
contained peptide sub2. Fluorescence measurements of
Sypro Orange in each sample were taken using a
Quantstudio 5 or Quantstudio 6, with temperatures ranging […]
from 23 to 75°C at a rate of 0.05°C/second. Data analysis […]
involved calculating thermal stability using the Boltzmann […]
and first derivative minima equations in Thermo Scientific
Protein Thermal Shift software v1.4. The resulting data […]
were uploaded to CDD Vault for further analysis.
Library Library size 10041
Library composition The library was curated from compounds cherry picked […]
from St. Jude’s collection, representative of 80% of the […]
entire collection based on scaffold diversity (2D Molecular […]
fingerprinting based clustering) and structural properties: […]
lipophilicity (cLogP<3), size (MW 200-300 Da), and no […]
structural alerts (PAINS).
Source The compound collection was curated from multiple […]
vendors and stored on-site.
Screen Format The assay was completed in 26 384 well plates
Concentration(s) tested Compounds were tested at 100µM, and then a 16-point […]
serial dilution was performed on select compounds.
Plate controls DMSO as negative control and peptide sub2 as positive […]
Reagent/ compound dispensing system Multidrop Combi and Labcyte ECHO 655T […]
Detection instrument and software Quant Studio 5 and Quant Studio 6 and Thermo Scientific […]
Protein Thermal Shift software v1.4
Correction factors No correction factors were applied.

neddylated CRL2^KLHDC2 = neddylated CRL2^KLHDC2 (Homo sapiens, UniProt Q9Y2U9, G405K/S406K); assay: biochemical
[5] = biological target: neddylated CRL2^KLHDC2 / BRD3^BD2 (Homo sapiens, UniProt Q15059+Q9Y2U9, Q9Y2U9:G405K/Q9Y2U9:S406K); assay: biochemical
KLHDC2^SBD / BRD3^BD2 = KLHDC2^SBD / BRD3^BD2 (Homo sapiens, UniProt Q15059+Q9Y2U9); assay: ITC, ternary complex KLHDC2^SBD with PROTAC-BRD3^BD2
Chain of KLHDC2^SBD / BRD3^BD2 (Q15059 306-416, one chain of several): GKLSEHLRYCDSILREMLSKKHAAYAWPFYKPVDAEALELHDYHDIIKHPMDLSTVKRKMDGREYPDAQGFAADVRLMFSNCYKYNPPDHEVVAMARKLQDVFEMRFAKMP

KLHDC2^SBD [6] = biological target: T1, KLHDC2^SBD; assay: ITC, binary binding of small molecule to KLHDC2^SBD
[7] = Solubility as observed in the ITC sample cell; conditions: at 40 μM in the ITC sample cell
[8] = system: BD2 domain from BRD2, BRD3, or BRD4 / neddylated CRL2^KLHDC2; assay: Pulse-chase PROTAC-dependent ubiquitylation of BRD BD2 domains by neddylated CRL2^KLHDC2; conditions: neddylated CRL2^KLHDC2 not subject to autoinhibition; Fig 3e
[9] = inhibition of KLHDC2^SBD binding to a di-Gly degron peptide, read-out: TR-FRET IC50
[10] = cell: PROTAC-BRD3^BD2, syringe: KLHDC2^SBD
[11] = cell: ligand, syringe: KLHDC2^SBD

SMILES: Cc1sc2c(c1C)C(c1ccc(Cl)cc1)=N[C@@H](CC(=O)OC(C)(C)C)c1nnc(C)n1-2 [JQ1, reference compound]
- IC50 [1]: ~0.3 µM

SMILES: COCn1cc(-c2nc(CC(=O)NCC(=O)O)cs2)ccc1=O [SJ15396]
- IC50 (KLHDC2^SBD [2]): 55.3 ± 25.2 µM
- Kd (KLHDC2^SBD [3]; SPR Kd): > 2000 µM
- ΔTm at 50 µM (KLHDC2^SBD [4]; 50 µM compound): 0.9 ± 0.2 °C

SMILES: Cc1sc2c(c1C)C(c1ccc(Cl)cc1)=N[C@@H](CC(=O)N1CCN(CCOc3ccc4ccc(-c5nc(CC(=O)NCC(=O)O)cs5)cc4c3)CC1)c1nnc(C)n1-2 [SJ46423]
- IC50 (neddylated CRL2^KLHDC2): 15.3 µM
- IC50 [5]: 2.2 µM
- cooperativity α (KLHDC2^SBD / BRD3^BD2; BRD3^BD2, KLHDC2^SBD): 2.9
- ITC -TΔS (ternary) (KLHDC2^SBD / BRD3^BD2; [10]): -5.26 +/- 0.18 kcal/mol-1
- ITC N (ternary) (KLHDC2^SBD / BRD3^BD2; [10]): 0.4 and ~ 0.5
- ITC ΔG (ternary) (KLHDC2^SBD / BRD3^BD2; [10]): -9.33 +/- 0.05 kcal/mol-1
- Kd (KLHDC2^SBD [6]; ITC Kd, cell: ligand, syringe: KLHDC2^SBD): 0.74 µM and 0.737 µM
- Kd (KLHDC2^SBD [6]; Kd, Rep1/Rep2, ITC source data Fig4a, syringe KLHDC2, cell PROTAC alone): 0.69 µM and 0.789 µM
- ITC -TΔS (KLHDC2^SBD [6]; [11]): -5.26 +/- 0.22 kcal/mol-1
- ITC stoichiometry of binding N (KLHDC2^SBD [6]; [11]): 0.4 and ~ 0.5
- ITC ΔG (KLHDC2^SBD [6]; [11]): -8.61 +/- 0.04 kcal/mol-1
- ITC ΔH (KLHDC2^SBD [6]; [11]): -3.35 +/- 0.11 kcal/mol-1
- solubility [7]: solubility issues
- polyubiquitylation of the BD2 domain from BRD2, BRD3, or BRD4 [8]: able to promote polyubiquitylation

Next, values leading:

- IC50 (KLHDC2^SBD [2]; [9]): 46.7 ± 13.5 µM
- Kd (KLHDC2^SBD [3]; read-out: SPR Kd): 19 ± 0.06 µM
- ΔTm at 50 µM (KLHDC2^SBD [4]; read-out: ΔTm at 50 µM): 2.3 ± 0.07 °C
SMILES: O=C(O)CNC(=O)Cc1csc(-c2cccc(Cl)c2)n1 [SJ10267]

- IC50 (KLHDC2^SBD [2]; [9]): 30.2 ± 3.4 µM
- Kd (KLHDC2^SBD [3]; read-out: SPR Kd): 14.52 ± 0.01 µM
- ΔTm at 50 µM (KLHDC2^SBD [4]; read-out: ΔTm at 50 µM): 3.3 ± 0.2 °C
SMILES: COc1ccc(-c2nc(CC(=O)NCC(=O)O)cs2)c(Cl)c1 [SJ10272]

- IC50 (KLHDC2^SBD [2]; [9]): 40.6 ± 7.6 µM
- Kd (KLHDC2^SBD [3]; read-out: SPR Kd): 25.47 ± 0.05 µM
- ΔTm at 50 µM (KLHDC2^SBD [4]; read-out: ΔTm at 50 µM): 2.5 ± 0.2 °C
SMILES: O=C(O)CNC(=O)Cc1csc(-c2ccc(O)cc2Cl)n1 [SJ10280]

- IC50 (KLHDC2^SBD [2]; [9]): 72.8 ± 8.6 µM
- Kd (KLHDC2^SBD [3]; read-out: SPR Kd): 26.6 ± 0.1 µM
- ΔTm at 50 µM (KLHDC2^SBD [4]; read-out: ΔTm at 50 µM): 2.8 ± 0.3 °C
SMILES: COCOc1ccc(-c2nc(CC(=O)NCC(=O)O)cs2)cc1F [SJ45737]
